From PubChem BioAssay (NCI)
Values joined by “and” are separate entries in the source; they are usually repeats but may differ in a detail not shown here. Equal values may be shown once.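 Dose response: 5 concentrations. Exposure: 48 h. Format: 96-well plates. Endpoint: linear interpolation; highest concentration if not reached. GI50 is the concentration that inhibits growth by half. TGI denotes the concentration required for complete inhibition of growth.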

What was measured:
Experiment in all cases: NCI anticancer screen, dose series, 48 h
[1] = system: NCI-H23 lung
[2] = system: A549 NSCLC
[3] = system: SK-MEL-28 melanoma
[4] = system: IGROV1 ovarian
[5] = system: SF-539 CNS
[6] = system: OVCAR-3 ovarian
[7] = system: SF-268 CNS
[8] = system: 786-0 renal
[9] = system: A498 renal
[10] = system: MDA-MB-231 breast

Row | SMILES | TGI [1] | TGI [2] | TGI [3] | TGI [4] | TGI [5] [µM] | TGI [6] | TGI [7] | TGI [8] | TGI [9] [µM] | GI50 [2] [µM] | GI50 [10] [µM] | TGI [10] | GI50 [3] [µM] | GI50 [4] [µM] | GI50 [5] [µM] | GI50 [6] [µM] | GI50 [7] [µM] | GI50 [8] [µM] | GI50 [9] [µM] | GI50 [1] [µM]
1 | CC[C@@H]1OC2(C)CC(S(=O)(=O)c3ccccc3)CC1O2 (some centres undefined) | > 100 µM | > 100 µM | > 100 µM | > 100 µM | > 100 | > 100 µM | > 100 µM | > 100 µM | – | – | – | – | – | – | – | – | – | – | – | –
2 | COc1ccc(C2S/C(=C\c3ccc(OC)cc3OC)C(=O)N2NC(=O)Cc2ccccc2)cc1 (centres undefined) | > 100 µM | > 100 µM | – | > 100 µM | > 100 | – | > 100 µM | > 100 µM | > 100 | – | – | – | – | – | – | – | – | – | – | –
3 | Cc1ccc(NC(=O)C(=O)Cc2nc3ccccc3o2)c(C)c1 | > 100 µM | > 100 µM | > 100 µM | > 100 µM | > 100 | > 100 µM | > 100 µM | > 100 µM | – | – | – | – | – | – | – | – | – | – | – | –
4 | CCOC(=O)C(C)(C)Oc1ccc2c(-c3ccc(Cl)cc3)cc(=O)oc2c1 | > 100 µM | > 100 µM | > 100 µM | > 100 µM | > 100 | > 100 µM | > 100 µM | > 100 µM | > 100 | – | – | – | – | – | – | – | – | – | – | –
5 | O=Nc1c(O)ccc2ccccc12 | – | 17.5 µM | 6.6 µM | 5.78 µM | 6.29 | 9.15 µM | 10.6 µM | 22 µM | 31.4 | 4.9 | 2.03 | 10.2 µM | 2.8 | 2.15 | 2.59 | 2.55 | 3.04 | 10.2 | 16.7 | –
6 | CCOC(=O)C(C[Si](C)(C)C)P(=O)(OCC)OCC (centres undefined) | > 100 µM | > 100 µM | > 100 µM | > 100 µM | > 100 | > 100 µM | > 100 µM | > 100 µM | – | – | – | – | – | – | – | – | – | – | – | –
7 | O=c1cccccc1NCCCCNc1cccccc1=O | > 100 µM | > 100 µM | > 100 µM | > 100 µM | – | > 100 µM | > 100 µM | > 100 µM | > 100 | – | – | – | – | – | – | – | – | – | – | –
8 | C[Si](C)(C)/C=C/CN1C(=O)CCC1O (centres undefined) | > 100 µM | > 100 µM | > 100 µM | > 100 µM | > 100 | > 100 µM | > 100 µM | > 100 µM | > 100 | – | – | – | – | – | – | – | – | – | – | –
9 | O=c1[nH]c(=S)[nH]c(O)c1/C=C1\C=CC=N1 | 40 µM | > 100 µM | 48.5 µM | 65 µM | 40.5 | 21.8 µM | 55.1 µM | 24.8 µM | 84.3 | – | – | – | – | – | – | – | – | – | – | –
10 | CN(O)C(=O)Cc1ccccc1 | > 100 µM | > 100 µM | > 100 µM | > 100 µM | > 100 | > 100 µM | > 100 µM | > 100 µM | – | – | – | – | – | – | – | – | – | – | – | –
11 | Cc1ccc(N2C(=O)/C(=C3\Sc4c(nc(C)[nH]c4=O)N3c3ccccc3)SC2=S)cc1 | 56.7 µM | > 100 µM | > 100 µM | > 100 µM | 29.5 | 47.7 µM | > 100 µM | 25.3 µM | 88.2 | – | – | – | – | – | – | – | – | – | – | –
12 | O=[N+]([O-])c1ccccc1C1N2CCCCC2[C@@H]2c3[nH]c4ccccc4c3CCN12 (some centres undefined) | 27.5 µM | 35.8 µM | 26.6 µM | 40.9 µM | 25.1 | 63.3 µM | 27.4 µM | 29.7 µM | 25.2 | – | – | – | – | – | – | – | – | – | – | –
13 | CCC1(OC(C)=O)C(=O)OCc2c1cc1n(c2=O)Cc2cc3ccccc3nc2-1 (centres undefined) | 4.6 µM | > 100 µM | > 100 µM | > 100 µM | 5.23 | > 100 µM | > 100 µM | > 31.1 µM | 25.5 | – | – | – | – | – | – | – | – | – | – | –
14 | O=C1C(c2ccccc2)=C(c2ccccc2)C(c2ccc(CCCCCCc3ccc(C4=C(c5ccccc5)C(=O)C(c5ccccc5)=C4c4ccccc4)cc3)cc2)=C1c1ccccc1 | > 100 µM | > 100 µM | > 100 µM | > 100 µM | > 100 | > 100 µM | > 100 µM | > 100 µM | – | – | – | – | – | – | – | – | – | – | – | –
15 | COc1ccc(-c2ccc(-c3ccc(C(=N)N)cn3)s2)cc1Cl | 3.72 µM | – | 3.35 µM | 3.28 µM | 3.11 | 3.32 µM | 3.43 µM | 4.03 µM | – | – | 1.62 | 3.23 µM | 1.72 | 1.57 | 1.64 | 1.83 | 1.8 | 1.98 | – | 1.83
16 | CCCCCCCCCC(=O)CC(=O)c1c(O)cccc1O | > 100 µM | 96.1 µM | > 100 µM | > 100 µM | > 100 | 80.9 µM | > 100 µM | 35.3 µM | – | – | – | – | – | – | – | – | – | – | – | –
17 | O=[N+]([O-])c1ccc2c(N=Nc3c(O)ccc4ccccc34)c(O)cc(S(=O)(=O)O)c2c1 | 50 µM and > 100 µM | 50 µM and > 100 µM | 50 µM and > 100 µM | 50 µM and > 100 µM | 50.8 | 50 µM and > 100 µM | 50 µM and > 100 µM | 50 µM and > 100 µM | – | 59.7 | > 100 | 50 µM and > 100 µM | 32.5 | 27.7 | – | 9.36 | 23.9 | 30.7 | – | 49.8
18 | O=c1c([Se]c2coc3ccccc3c2=O)coc2ccccc12 | 29.6 µM | 20.9 µM | 30.8 µM | 22.3 µM | 24.2 | 32 µM | 33.8 µM | 32.9 µM | 33.6 | – | – | – | – | – | – | – | – | – | – | –
19 | O=C1C2=C(c3ccccc31)C(c1ccccc1Cl)N1C(=O)CSC1=N2 (centres undefined) | > 100 µM | > 100 µM | > 100 µM | > 100 µM | > 100 | > 100 µM | > 100 µM | > 100 µM | > 100 | – | – | – | – | – | – | – | – | – | – | –
20 | CC(C)(C)CC(C)(C)c1ccc(OCCOCCSC(=N)N)cc1 | 7.38 µM | 8.77 µM | 3.24 µM | 4.81 µM | 3.31 | 4.48 µM | 12.5 µM | 3.46 µM | – | 2.65 | 1.34 | 2.94 µM | 1.72 | 2.3 | 1.81 | 2.05 | 3.58 | 1.71 | – | 2.85
